Results taken from publication PMC9894226 (Proceedings of the National Academy of Sciences of the …, 2022).
Non-standard residues stand in square brackets, D forms with d. Residues, ends and D or L forms follow the SMILES beside them. Nle = CCCC[C@H](N)C(=O)O

How the values were obtained:
[1] = pH 7.4; ref [67]; cited from earlier work
C. elegans CL2355 = experiment: Chemotaxis assay in transgenic C. elegans; assay type: in vivo, Caenorhabditis elegans; details: fed 0.5, 5 and 50 μM; untreated CL2355 0.18 ± 0.01, CL2122 0.29 ± 0.01
5xFAD mice = experiment: PET/CT imaging in 5xFAD mice; assay type: in vivo, mouse; details: 6-mo-old 5xFAD mice, 1 h post injection

| Molecule | Chemotaxis index (CI) of CL2355 mutants (C. elegans CL2355) | also measured |
| --- | --- | --- |
| O=C(O)CN1CCN(CC(=O)O)CCN(CC(=O)O)CC1 [NOTA, 2,2′,2”-(1,4,7-triazacyclononane-1,4,7-triyl)triacetic acid] | – | Thermodynamic stability constant of Cu^2+ complex (log KML) [1]: 23.33 |
| CCCC[C@@H]1NC(=O)[C@@H](CC(C)C)NC(=O)[C@H](CCCCN)NC(=O)[C@@H](CO)NC(=O)[C@H](Cc2c[nH]cn2)NC(=O)[C@@H](C)NC1=O [[w4a]-1, c-(D-Leu-Nle-D-Ala-His-D-Ser-Lys)] (cyclo(H[dS]K[dL][Nle][dA])) | significantly less protective than peptide 1 | – |
| [11CH3]Nc1ccc(-c2nc3ccc(O)cc3s2)cc1 [^11C-PIB, ^11C-Pittsburgh compound B] | – | Hippocampal uptake (PET) (5xFAD mice): 1.038 ± 0.028 %ID/g |
| H-[dL][Nle][dW]H[dS]K-OH [Lin-1] | significantly less protective than peptide 1 | – |
